Results published in ChEMBL document CHEMBL1127248, “Novel water-solutle (7-(acylhydrazono)-formyl camptothecins as potent inhibitors of DNA topoisomerase I” (Bioorg Med Chem Lett, 1994).
In brackets after ≈: the same amount, converted by molar mass.

System: MCF7
Experiment: Cytotoxicity in MCF-7 cancer cell line
Type: functional, cell-based
Settings: Homo sapiens

Row | SMILES | IC50 [µg/mL]
1 | CC[C@@]1(O)C(=O)OCc2c1cc1n(c2=O)Cc2cc3ccccc3nc2-1 [CAMPTOTHECIN] | 0.02 (≈ 0.0574 µM)
2 | CC[C@@]1(O)C(=O)OCc2c1cc1n(c2=O)Cc2c-1nc1ccccc1c2/C=N/NC(=O)CN.Cl | 0.4
3 | CC[C@@]1(O)C(=O)OCc2c1cc1n(c2=O)Cc2c-1nc1ccccc1c2/C=N/NC(=O)C(N)CO.Cl (stereo partly specified) | 1
4 | CC[C@@]1(O)C(=O)OCc2c1cc1n(c2=O)Cc2c-1nc1ccccc1c2/C=N/NC(=O)C(N)Cc1ccc(O)cc1.Cl (stereo partly specified) | 5
5 | CC[C@@]1(O)C(=O)OCc2c1cc1n(c2=O)Cc2c-1nc1ccccc1c2/C=N/NC(=O)C(N)CCSC.Cl (stereo partly specified) | 1
6 | CC[C@@]1(O)C(=O)OCc2c1cc1n(c2=O)Cc2c-1nc1ccccc1c2/C=N/NC(=O)C(N)CC(C)C.Cl (stereo partly specified) | 0.15
7 | CC[C@@]1(O)C(=O)OCc2c1cc1n(c2=O)Cc2c-1nc1ccccc1c2/C=N/NC(=O)C(C)N.Cl (stereo partly specified) | 1
8 | CC[C@@]1(O)C(=O)OCc2c1cc1n(c2=O)Cc2c-1nc1ccccc1c2/C=N/NC(=O)C1CCCN1.Cl (stereo partly specified) | 0.8

System: not listed separately
Experiment: Compound was tested for the production of cellular protein-linked DNA breaks when administered at a dose of 25 ug/mL
Type: functional
Settings: not given

Row | SMILES | Activity [%]
9 | CC[C@@]1(O)C(=O)OCc2c1cc1n(c2=O)Cc2cc3ccccc3nc2-1 [CAMPTOTHECIN] | 100
10 | CC[C@@]1(O)C(=O)OCc2c1cc1n(c2=O)Cc2c-1nc1ccccc1c2/C=N/NC(=O)CN.Cl | 110.3
11 | CC[C@@]1(O)C(=O)OCc2c1cc1n(c2=O)Cc2c-1nc1ccccc1c2/C=N/NC(=O)C(N)CO.Cl (stereo partly specified) | 79.8
12 | CC[C@@]1(O)C(=O)OCc2c1cc1n(c2=O)Cc2c-1nc1ccccc1c2/C=N/NC(=O)C(N)Cc1ccc(O)cc1.Cl (stereo partly specified) | 181
13 | CC[C@@]1(O)C(=O)OCc2c1cc1n(c2=O)Cc2c-1nc1ccccc1c2/C=N/NC(=O)C(N)CCSC.Cl (stereo partly specified) | 111
14 | CC[C@@]1(O)C(=O)OCc2c1cc1n(c2=O)Cc2c-1nc1ccccc1c2/C=N/NC(=O)C(N)CC(C)C.Cl (stereo partly specified) | 111.7
15 | CC[C@@]1(O)C(=O)OCc2c1cc1n(c2=O)Cc2c-1nc1ccccc1c2/C=N/NC(=O)C(C)N.Cl (stereo partly specified) | 93.7
16 | CC[C@@]1(O)C(=O)OCc2c1cc1n(c2=O)Cc2c-1nc1ccccc1c2/C=N/NC(=O)C1CCCN1.Cl (stereo partly specified) | 154.6

System: KB VCR R
Experiment: Cytotoxicity in KB VCR R cancer cell line
Type: functional, cell-based
Settings: Homo sapiens

Row | SMILES | IC50 [µg/mL]
17 | CC[C@@]1(O)C(=O)OCc2c1cc1n(c2=O)Cc2cc3ccccc3nc2-1 [CAMPTOTHECIN] | 0.03 (≈ 0.0861 µM)
18 | CC[C@@]1(O)C(=O)OCc2c1cc1n(c2=O)Cc2c-1nc1ccccc1c2/C=N/NC(=O)CN.Cl | 1
19 | CC[C@@]1(O)C(=O)OCc2c1cc1n(c2=O)Cc2c-1nc1ccccc1c2/C=N/NC(=O)C(N)CO.Cl (stereo partly specified) | 3
20 | CC[C@@]1(O)C(=O)OCc2c1cc1n(c2=O)Cc2c-1nc1ccccc1c2/C=N/NC(=O)C(N)Cc1ccc(O)cc1.Cl (stereo partly specified) | 1
21 | CC[C@@]1(O)C(=O)OCc2c1cc1n(c2=O)Cc2c-1nc1ccccc1c2/C=N/NC(=O)C(N)CCSC.Cl (stereo partly specified) | 0.2
22 | CC[C@@]1(O)C(=O)OCc2c1cc1n(c2=O)Cc2c-1nc1ccccc1c2/C=N/NC(=O)C(N)CC(C)C.Cl (stereo partly specified) | 0.4
23 | CC[C@@]1(O)C(=O)OCc2c1cc1n(c2=O)Cc2c-1nc1ccccc1c2/C=N/NC(=O)C(C)N.Cl (stereo partly specified) | 3
24 | CC[C@@]1(O)C(=O)OCc2c1cc1n(c2=O)Cc2c-1nc1ccccc1c2/C=N/NC(=O)C1CCCN1.Cl (stereo partly specified) | 5

System: SW480
Experiment: Cytotoxicity in SW480 cancer cell line
Type: functional, cell-based
Settings: Homo sapiens

Row | SMILES | IC50 [µg/mL]
25 | CC[C@@]1(O)C(=O)OCc2c1cc1n(c2=O)Cc2cc3ccccc3nc2-1 [CAMPTOTHECIN] | 0.01 (≈ 0.0287 µM)
26 | CC[C@@]1(O)C(=O)OCc2c1cc1n(c2=O)Cc2c-1nc1ccccc1c2/C=N/NC(=O)CN.Cl | 0.1
27 | CC[C@@]1(O)C(=O)OCc2c1cc1n(c2=O)Cc2c-1nc1ccccc1c2/C=N/NC(=O)C(N)CO.Cl (stereo partly specified) | 1
28 | CC[C@@]1(O)C(=O)OCc2c1cc1n(c2=O)Cc2c-1nc1ccccc1c2/C=N/NC(=O)C(N)Cc1ccc(O)cc1.Cl (stereo partly specified) | 0.4
29 | CC[C@@]1(O)C(=O)OCc2c1cc1n(c2=O)Cc2c-1nc1ccccc1c2/C=N/NC(=O)C(N)CCSC.Cl (stereo partly specified) | 0.8
30 | CC[C@@]1(O)C(=O)OCc2c1cc1n(c2=O)Cc2c-1nc1ccccc1c2/C=N/NC(=O)C(N)CC(C)C.Cl (stereo partly specified) | 0.04
31 | CC[C@@]1(O)C(=O)OCc2c1cc1n(c2=O)Cc2c-1nc1ccccc1c2/C=N/NC(=O)C(C)N.Cl (stereo partly specified) | 0.6
32 | CC[C@@]1(O)C(=O)OCc2c1cc1n(c2=O)Cc2c-1nc1ccccc1c2/C=N/NC(=O)C1CCCN1.Cl (stereo partly specified) | 0.7

System: HepG2
Experiment: Cytotoxicity in HepG2-T14 cancer cell line
Type: functional, cell-based
Settings: Homo sapiens

Row | SMILES | IC50 [µg/mL]
33 | CC[C@@]1(O)C(=O)OCc2c1cc1n(c2=O)Cc2cc3ccccc3nc2-1 [CAMPTOTHECIN] | 0.09 (≈ 0.258 µM)
34 | CC[C@@]1(O)C(=O)OCc2c1cc1n(c2=O)Cc2c-1nc1ccccc1c2/C=N/NC(=O)CN.Cl | 0.6
35 | CC[C@@]1(O)C(=O)OCc2c1cc1n(c2=O)Cc2c-1nc1ccccc1c2/C=N/NC(=O)C(N)CO.Cl (stereo partly specified) | 3.5
36 | CC[C@@]1(O)C(=O)OCc2c1cc1n(c2=O)Cc2c-1nc1ccccc1c2/C=N/NC(=O)C(N)Cc1ccc(O)cc1.Cl (stereo partly specified) | 1
37 | CC[C@@]1(O)C(=O)OCc2c1cc1n(c2=O)Cc2c-1nc1ccccc1c2/C=N/NC(=O)C(N)CCSC.Cl (stereo partly specified) | 2
38 | CC[C@@]1(O)C(=O)OCc2c1cc1n(c2=O)Cc2c-1nc1ccccc1c2/C=N/NC(=O)C(N)CC(C)C.Cl (stereo partly specified) | 0.4
39 | CC[C@@]1(O)C(=O)OCc2c1cc1n(c2=O)Cc2c-1nc1ccccc1c2/C=N/NC(=O)C(C)N.Cl (stereo partly specified) | 2.5
40 | CC[C@@]1(O)C(=O)OCc2c1cc1n(c2=O)Cc2c-1nc1ccccc1c2/C=N/NC(=O)C1CCCN1.Cl (stereo partly specified) | 1.25

System: KB
Experiment: Cytotoxicity in KB VP-16 R cancer cell line
Type: functional, cell-based
Settings: Homo sapiens

Row | SMILES | IC50 [µg/mL]
41 | CC[C@@]1(O)C(=O)OCc2c1cc1n(c2=O)Cc2cc3ccccc3nc2-1 [CAMPTOTHECIN] | 0.04 (≈ 0.115 µM)
42 | CC[C@@]1(O)C(=O)OCc2c1cc1n(c2=O)Cc2c-1nc1ccccc1c2/C=N/NC(=O)CN.Cl | 3
43 | CC[C@@]1(O)C(=O)OCc2c1cc1n(c2=O)Cc2c-1nc1ccccc1c2/C=N/NC(=O)C(N)CO.Cl (stereo partly specified) | 5
44 | CC[C@@]1(O)C(=O)OCc2c1cc1n(c2=O)Cc2c-1nc1ccccc1c2/C=N/NC(=O)C(N)Cc1ccc(O)cc1.Cl (stereo partly specified) | 5
45 | CC[C@@]1(O)C(=O)OCc2c1cc1n(c2=O)Cc2c-1nc1ccccc1c2/C=N/NC(=O)C(N)CCSC.Cl (stereo partly specified) | 0.5
46 | CC[C@@]1(O)C(=O)OCc2c1cc1n(c2=O)Cc2c-1nc1ccccc1c2/C=N/NC(=O)C(N)CC(C)C.Cl (stereo partly specified) | 1
47 | CC[C@@]1(O)C(=O)OCc2c1cc1n(c2=O)Cc2c-1nc1ccccc1c2/C=N/NC(=O)C(C)N.Cl (stereo partly specified) | 5
48 | CC[C@@]1(O)C(=O)OCc2c1cc1n(c2=O)Cc2c-1nc1ccccc1c2/C=N/NC(=O)C1CCCN1.Cl (stereo partly specified) | 0.6

Molecular target: T1, DNA topoisomerase 1 (Homo sapiens) (UniProt P11387)
T1 sequence (whole entry): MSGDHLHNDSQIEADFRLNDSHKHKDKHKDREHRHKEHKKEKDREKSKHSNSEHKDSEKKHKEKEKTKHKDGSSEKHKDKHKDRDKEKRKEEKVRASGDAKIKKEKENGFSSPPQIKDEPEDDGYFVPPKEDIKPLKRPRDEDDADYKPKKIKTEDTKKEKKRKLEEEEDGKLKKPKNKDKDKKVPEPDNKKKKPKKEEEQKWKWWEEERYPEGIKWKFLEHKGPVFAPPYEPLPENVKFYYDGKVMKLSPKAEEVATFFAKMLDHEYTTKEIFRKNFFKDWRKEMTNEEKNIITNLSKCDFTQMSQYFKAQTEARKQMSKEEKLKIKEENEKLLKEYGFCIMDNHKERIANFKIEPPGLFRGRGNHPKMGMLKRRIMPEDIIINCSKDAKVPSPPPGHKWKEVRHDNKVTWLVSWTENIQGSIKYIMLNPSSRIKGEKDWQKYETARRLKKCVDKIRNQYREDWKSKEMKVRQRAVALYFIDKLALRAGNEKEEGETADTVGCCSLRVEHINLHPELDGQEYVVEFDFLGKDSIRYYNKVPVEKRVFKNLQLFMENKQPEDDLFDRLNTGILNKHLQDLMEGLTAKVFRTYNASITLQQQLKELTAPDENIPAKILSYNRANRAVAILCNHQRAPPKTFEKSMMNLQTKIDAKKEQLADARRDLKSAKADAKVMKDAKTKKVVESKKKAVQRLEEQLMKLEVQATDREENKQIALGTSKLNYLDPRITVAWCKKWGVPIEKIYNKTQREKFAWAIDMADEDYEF
Experiment: Compound was tested for the inhibition of Topoisomerase I when administered at a dose of 25 ug/mL
Settings: not given

Row | SMILES | Topoisomerase I inhibition relative to reference (%)
49 | CC[C@@]1(O)C(=O)OCc2c1cc1n(c2=O)Cc2c-1nc1ccccc1c2/C=N/NC(=O)CN.Cl | 116
50 | CC[C@@]1(O)C(=O)OCc2c1cc1n(c2=O)Cc2c-1nc1ccccc1c2/C=N/NC(=O)C(N)CO.Cl (stereo partly specified) | 145
51 | CC[C@@]1(O)C(=O)OCc2c1cc1n(c2=O)Cc2c-1nc1ccccc1c2/C=N/NC(=O)C(N)CC(C)C.Cl (stereo partly specified) | 136
52 | CC[C@@]1(O)C(=O)OCc2c1cc1n(c2=O)Cc2c-1nc1ccccc1c2/C=N/NC(=O)C(C)N.Cl (stereo partly specified) | 98
53 | CC[C@@]1(O)C(=O)OCc2c1cc1n(c2=O)Cc2c-1nc1ccccc1c2/C=N/NC(=O)C1CCCN1.Cl (stereo partly specified) | 100

System: KB
Experiment: Cytotoxicity in KB cancer cell line
Type: functional, cell-based
Settings: Homo sapiens

Row | SMILES | IC50 [µg/mL]
54 | CC[C@@]1(O)C(=O)OCc2c1cc1n(c2=O)Cc2cc3ccccc3nc2-1 [CAMPTOTHECIN] | 0.01 (≈ 0.0287 µM)
55 | CC[C@@]1(O)C(=O)OCc2c1cc1n(c2=O)Cc2c-1nc1ccccc1c2/C=N/NC(=O)CN.Cl | 0.1
56 | CC[C@@]1(O)C(=O)OCc2c1cc1n(c2=O)Cc2c-1nc1ccccc1c2/C=N/NC(=O)C(N)CO.Cl (stereo partly specified) | 0.12
57 | CC[C@@]1(O)C(=O)OCc2c1cc1n(c2=O)Cc2c-1nc1ccccc1c2/C=N/NC(=O)C(N)Cc1ccc(O)cc1.Cl (stereo partly specified) | 0.1
58 | CC[C@@]1(O)C(=O)OCc2c1cc1n(c2=O)Cc2c-1nc1ccccc1c2/C=N/NC(=O)C(N)CCSC.Cl (stereo partly specified) | 0.1
59 | CC[C@@]1(O)C(=O)OCc2c1cc1n(c2=O)Cc2c-1nc1ccccc1c2/C=N/NC(=O)C(N)CC(C)C.Cl (stereo partly specified) | 0.1
60 | CC[C@@]1(O)C(=O)OCc2c1cc1n(c2=O)Cc2c-1nc1ccccc1c2/C=N/NC(=O)C(C)N.Cl (stereo partly specified) | 0.1
61 | CC[C@@]1(O)C(=O)OCc2c1cc1n(c2=O)Cc2c-1nc1ccccc1c2/C=N/NC(=O)C1CCCN1.Cl (stereo partly specified) | 0.04
